In US20260274892A1, “MACROCYCLIC BROAD SPECTRUM ANTIBIOTICS” (RQx Pharmaceuticals, Inc., priority 2017, published 2026):

Tests used:
[1] = system: Methicillin Resistant Staphylococcus aureus strain USA 200; assay: Minimum inhibitory concentration (MIC), CLSI broth micro-dilution, S. aureus; format: cell-based; conditions: Staphylococcus aureus, MRSA / USA200; Table 6; MRSA USA 200; cation adjusted Mueller Hinton Broth + 0.002% Tween-80; 35° C., 22 hours
Method in brief: (§1)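 Colonies grown 20 h at 35° C on Trypticase Soy agar (MRSA) or Luria agar (E. coli) were suspended in cation-adjusted Mueller Hinton broth with 0.002% Tween-80. Suspensions were added at OD600 0.0005 to 10-point twofold compound dilutions, then incubated 22 h at 35° C.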

[2] = system: Escherichia coli ATCC 25922; assay: Minimum inhibitory concentration (MIC), CLSI broth micro-dilution, E. coli; format: cell-based; conditions: Escherichia coli, ATCC25922, 22 h, Table 6, cation adjusted Mueller Hinton Broth + 0.002% Tween-80, 35° C.
Method in brief: as §1

Compound | MIC [1] [µM] | MIC [2] [µM]
Cc1nc(-c2ccc(O)cc2)nc(C)c1C(=O)N[C@@H](CCN)C(=O)N(C)[C@@H]1C(=O)N[C@@H](C)C(=O)N[C@H](C(=O)NCC#N)Cc2ccc(OCCN)c(c2)-c2cc1ccc2OCCN (racemic) [Compound 542, rac-(8S,11S,14S)-3,18-bis(2-aminoethoxy)-N-(cyanomethyl)-11-methyl-14-[methyl-[rac-(2S)-4-amino-2-[[2-(4-hydroxyphenyl)-4,6-dimethyl-pyrimidine-5-carbonyl]amino]butanoyl]amino]-10,13-dioxo-9,12-diazatricyclo[13.3.1.12,6]icosa-1(18),2(20),3,5,15(19),16-hexaene-8-carboxamide] | 0.55 | 4.4
Cc1cc(-c2ccc(C(C)(C)C)cc2)nc(C)c1C(=O)N[C@@H](CCN)C(=O)N(C)[C@@H]1C(=O)N[C@@H](C)C(=O)N[C@H](C(=O)NCC#N)Cc2ccc(O)c(c2)-c2cc1ccc2OCCN (racemic) [Compound 530, rac-(8S,11S,14S)-18-(2-aminoethoxy)-N-(cyanomethyl)-3-hydroxy-11-methyl-14-[methyl-[rac-(2S)-4-amino-2-[[6-(4-tert-butylphenyl)-2,4-dimethyl-pyridine-3-carbonyl]amino]butanoyl]amino]-10,13-dioxo-9,12-diazatricyclo[13.3.1.12,6]icosa-1(18),2(20),3,5,15(19),16-hexaene-8-carboxamide] | 0.063 | 0.35
Cc1cc(-c2ccc(C(C)(C)C)cc2N)nc(C)c1C(=O)N[C@@H](CCN)C(=O)N(C)[C@@H]1C(=O)N[C@@H](C)C(=O)N[C@H](C(=O)NCC#N)Cc2ccc(OCCN)c(c2)-c2cc1ccc2OCCN (racemic) [Compound 369, rac-(8S,11S,14S)-3,18-bis(2-aminoethoxy)-N-(cyanomethyl)-11-methyl-14-[methyl-[rac-(2S)-4-amino-2-[[6-(2-amino-4-tert-butyl-phenyl)-2,4-dimethyl-pyridine-3-carbonyl]amino]butanoyl]amino]-10,13-dioxo-9,12-diazatricyclo[13.3.1.12,6]icosa-1(18),2(20),3,5,15(19),16-hexaene-8-carboxamide] | 0.047 | 0.75
Cc1nc(-c2ccc(OC3CCCCC3)cc2)nc(C)c1C(=O)N[C@@H](CCNC(N)=O)C(=O)N(C)[C@@H]1C(=O)N[C@@H](C)C(=O)N[C@H](C(=O)NCC#N)Cc2ccc(OCCN)c(c2)-c2cc1ccc2OCCN [Compound 498, (8S,11S,14S)-3,18-bis(2-aminoethoxy)-N-(cyanomethyl)-14-[[(2S)-2-[[2-[4-(cyclohexoxy)phenyl]-4,6-dimethyl-pyrimidine-5-carbonyl]amino]-4-ureido-butanoyl]-methyl-amino]-11-methyl-10,13-dioxo-9,12-diazatricyclo[13.3.1.12,6]icosa-1(18),2(20),3,5,15(19),16-hexaene-8-carboxamide] | 0.063 | 1
C=Cc1ccc(-c2nc(C)c(C(=O)N[C@@H](CCN)C(=O)N(C)[C@@H]3C(=O)N[C@@H](C)C(=O)N[C@H](C(=O)NCC#N)Cc4ccc(OCCN)c(c4)-c4cc3ccc4OCCN)c(C)n2)cc1 (racemic) [Compound 265, rac-(8S,11S,14S)-3,18-bis(2-aminoethoxy)-N-(cyanomethyl)-11-methyl-14-[methyl-[rac-(2S)-4-amino-2-[[4,6-dimethyl-2-(4-vinylphenyl)pyrimidine-5-carbonyl]amino]butanoyl]amino]-10,13-dioxo-9,12-diazatricyclo[13.3.1.12,6]icosa-1(18),2(20),3,5,15(19),16-hexaene-8-carboxamide] | 0.068 | 0.41
C[C@@H]1NC(=O)[C@@H](N(C)C(=O)[C@H](CCN)NC(=O)c2ccn(-c3ccc(C(C)(C)C)cc3)c(=O)c2)c2ccc(OCCN)c(c2)-c2cc(ccc2OCCN)C[C@@H](C(=O)NCC#N)NC1=O (racemic) [Compound 383, rac-(8S,11S,14S)-3,18-bis(2-aminoethoxy)-N-(cyanomethyl)-11-methyl-14-[methyl-[rac-(2S)-4-amino-2-[[1-(4-tert-butylphenyl)-2-oxo-pyridine-4-carbonyl]amino]butanoyl]amino]-10,13-dioxo-9,12-diazatricyclo[13.3.1.12,6]icosa-1(18),2(20),3,5,15(19),16-hexaene-8-carboxamide] | 0.1 | 1.1
Cc1nc(-c2ccc(COC(C)(C)C)cc2)nc(C)c1C(=O)N[C@@H](CCN)C(=O)N(C)[C@@H]1C(=O)N[C@@H](C)C(=O)N[C@H](C(=O)NCC#N)Cc2ccc(OCCN)c(c2)-c2cc1ccc2OCCN (racemic) [Compound 343, rac-(8S,11S,14S)-3,18-bis(2-aminoethoxy)-N-(cyanomethyl)-11-methyl-14-[methyl-[rac-(2S)-4-amino-2-[[2-[4-(tert-butoxymethyl)phenyl]-4,6-dimethyl-pyrimidine-5-carbonyl]amino]butanoyl]amino]-10,13-dioxo-9,12-diazatricyclo[13.3.1.12,6]icosa-1(18),2(20),3,5,15(19),16-hexaene-8-carboxamide] | 0.13 | 0.75

The remaining lines, values ahead:

MIC [1] [µM] | MIC [2] [µM] | Compound
0.012 | 0.13 | CCCCCCCc1ccc(-c2ncc(C(=O)N[C@@H](CCN)C(=O)N(C)[C@@H]3C(=O)N[C@@H](C)C(=O)N[C@H](C(=O)NCC#N)Cc4ccc(OCCN)c(c4)-c4cc3ccc4OCCN)c(C)n2)cc1 (racemic) [Compound 240, rac-(8S,11S,14S)-3,18-bis(2-aminoethoxy)-N-(cyanomethyl)-11-methyl-14-[methyl-[rac-(2S)-4-amino-2-[[2-(4-heptylphenyl)-4-methyl-pyrimidine-5-carbonyl]amino]butanoyl]amino]-10,13-dioxo-9,12-diazatricyclo[13.3.1.12,6]icosa-1(18),2(20),3,5,15(19),16-hexaene-8-carboxamide]
0.031 | 0.48 | Cc1nc(-c2ccc(OC3CCCCC3)cc2)nc(C)c1C(=O)N[C@@H](CCNS(N)(=O)=O)C(=O)N(C)[C@@H]1C(=O)N[C@@H](C)C(=O)N[C@H](C(=O)NCC#N)Cc2ccc(OCCN)c(c2)-c2cc1ccc2OCCN [Compound 500, (8S,11S,14S)-3,18-bis(2-aminoethoxy)-N-(cyanomethyl)-14-[[(2S)-2-[[2-[4-(cyclohexoxy)phenyl]-4,6-dimethyl-pyrimidine-5-carbonyl]amino]-4-(sulfamoylamino)butanoyl]-methyl-amino]-11-methyl-10,13-dioxo-9,12-diazatricyclo[13.3.1.12,6]icosa-1(18),2(20),3,5,15(19),16-hexaene-8-carboxamide]
0.047 | 1 | Cc1nc(-c2ccc(OC3CCCCC3)cc2)nc(C)c1C(=O)N[C@@H](CCCNS(N)(=O)=O)C(=O)N(C)[C@@H]1C(=O)N[C@@H](C)C(=O)N[C@H](C(=O)NCC#N)Cc2ccc(OCCN)c(c2)-c2cc1ccc2OCCN [Compound 503, (8S,11S,14S)-3,18-bis(2-aminoethoxy)-N-(cyanomethyl)-14-[[(2S)-2-[[2-[4-(cyclohexoxy)phenyl]-4,6-dimethyl-pyrimidine-5-carbonyl]amino]-5-(sulfamoylamino)pentanoyl]-methyl-amino]-11-methyl-10,13-dioxo-9,12-diazatricyclo[13.3.1.12,6]icosa-1(18),2(20),3,5,15(19),16-hexaene-8-carboxamide]
0.044 | 0.28 | Cc1nc(-c2ccc(C(C)(C)C)cc2)ncc1C(=O)N[C@@H](CCN)C(=O)N(C)[C@@H]1C(=O)N[C@@H](C)C(=O)N[C@H](C(=O)NCC#N)Cc2ccc(O)c(c2)-c2cc1ccc2OCCN (racemic) [Compound 523, rac-(8S,11S,14S)-18-(2-aminoethoxy)-N-(cyanomethyl)-3-hydroxy-11-methyl-14-[methyl-[rac-(2S)-4-amino-2-[[2-(4-tert-butylphenyl)-4-methyl-pyrimidine-5-carbonyl]amino]butanoyl]amino]-10,13-dioxo-9,12-diazatricyclo[13.3.1.12,6]icosa-1(18),2(20),3,5,15(19),16-hexaene-8-carboxamide]
0.016 | 0.094 | Cc1nc(-c2ccc(OC3C[C@@H]4CC[C@H]3C4)cc2)nc(C)c1C(=O)N[C@@H](CCN)C(=O)N(C)[C@@H]1C(=O)N[C@@H](C)C(=O)N[C@H](C(=O)NCC#N)Cc2ccc(OCCN)c(c2)-c2cc1ccc2OCCN (mixture of isomers) [Compound 350, rac-(8S,11S,14S)-3,18-bis(2-aminoethoxy)-N-(cyanomethyl)-11-methyl-14-[methyl-[rac-(2S)-4-amino-2-[[4,6-dimethyl-2-[4-[rac-(1S,4R)-norboman-2-yl]oxyphenyl]pyrimidine-5-carbonyl]amino]butanoyl]amino]-10,13-dioxo-9,12-diazatricyclo[13.3.1.12,6]icosa-1(18),2(20),3,5,15(19),16-hexaene-8-carboxamide]
0.016 | 0.13 | Cc1nc(-c2ccc(C(C)(C)C)cc2)cc(N)c1C(=O)N[C@@H](CCN)C(=O)N(C)[C@@H]1C(=O)N[C@@H](C)C(=O)N[C@H](C(=O)NCC#N)Cc2ccc(OCCN)c(c2)-c2cc1ccc2OCCN (racemic) [Compound 413, rac-(8S,11S,14S)-3,18-bis(2-aminoethoxy)-N-(cyanomethyl)-11-methyl-14-[methyl-[rac-(2S)-4-amino-2-[[4-amino-6-(4-tert-butylphenyl)-2-methyl-pyridine-3-carbonyl]amino]butanoyl]amino]-10,13-dioxo-9,12-diazatricyclo[13.3.1.12,6]icosa-1(18),2(20),3,5,15(19),16-hexaene-8-carboxamide]
